Results as given in patent publication US5962533A, “Hydroxy polyamines” (priority 1996, dated 1999).
pIC50: −log10 of the molar value. “And” between values parts separate entries of the source, which are not always exact repeats. Equal entries are not always repeated. Structures can show the parent of a compound that is named as a salt. Where two headings read alike, the source gives them in different places.

Legend:
[1] = Chronic toxicity, one dose per day for five days; format: in vivo
Protocol: In the chronic toxicity regimen, mice were administered the polyamine analogue as one dose per day for five days. Appetite, weight and overall physical appearance were recorded at the time of each injection. After the treatment regimen had been completed, the animals were observed an additional 10 days. The chronic toxicity dosing regimen was set up so that at least one test group was presented with a high fraction of lethalities.

[2] = system: L1210 cells; assay: L1210 growth inhibition, IC50 determinations; format: cell-based, Murine
Protocol: IC50 Determinations. Cells were grown in 25 cm^2 tissue culture flasks in a total volume of 10 ml. Cultures were treated while in logarithmic growth (0.5-1.0×10^5 cells/ml) with the polyamine derivative diluted in sterile water and filtered through a 0.2 μm filter.
After the indicated time periods, cells were removed from the incubator for counting. Cell number was determined by electronic particle counting (Model ZF coulter counter, Coulter Electronics, Hialeah, Fla.) and confirmed periodically with hemocytometer measurements.
The percentage of control growth was determined as follows: [formula]

[3] = Metabolism of (HO)2 DEHSPM v. DEHSPM in mouse liver and kidney (HPLC); format: in vivo
Protocol: Metabolism of (HO)2 DEHSPM v. DEHSPM in Mouse Liver and Kidney. […] In ease case, animals were sacrificed for HPLC analysis one day after the final dose.
HPLC Analysis of Polyamines. Various tissues including the liver and kidney were prepared for HPLC analysis of polyamine content. In order to facilitate their handling, the organs were submerged in liquid nitrogen. Once frozen and weighed, the tissues were homogenized (Tissuemizer, Tekmar, Cincinnati, Ohio) in 1.2N perchloric acid (containing 1,7-diaminoheptane internal standard) in a 1:20 (w/v) ratio. The tissue homogenates were then freeze-thawed three times and stored in a -70° C. freezer until HPLC analysis was performed.
Each chromatographic assay included calibration standards which were treated in the same manner as the samples. […] The concentration of each polyamine was calculated from the peak area by calibration curves obtained by non-weighted least squares linear regression. Peak area and linear regression calculations were performed on a Macintosh Centris 650 with Rainin Dynamax HPLC Method Manager software (Rainin Instrument Co., Ridgefield, N.J.).

[4] = system: castor oil-induced diarrhea; assay: Castor oil-induced diarrhea; format: in vivo, rat
Source text: Castor Oil-Induced Diarrhea. Male Sprague-Dawley rats (350-400 g) were fasted overnight in hanging wire cages and allowed free access to water.

[5] = system: NMDA receptor; assay: NMDA assay: specific [3H]MK-801 binding to washed rat cerebral cortical membranes; details: 100 μm L-glutamate, 100 μm glycine, 2 nm [3H]MK-801
Source text: FIG. 4 depicts the effects of (HO)2 DEHSPM and DEHSPM on the NMDA receptor (MK-801 binding). Each data point represents the mean ±s.d. of three experiments. Each experiment was, in turn, performed in triplicate. "100% activity" is defined as the amount of specific MK-801 binding to washed rat cerebral cortical membranes in the presence of saturating concentrations of coagonists (100 μm L-glutamate, 100 μm glycine) and 2 nm [^3 H]MK-801.
NMDA Assay. The procedure for measuring specific binding of [^3 H]MK-801 to the N-methyl-D-aspartate receptor complex was a modification of the method of Ransom and Stec [J. Neurochem., Vol. 51, pages 830-836 (1988)]. Cerebral cortices from young male Sprague-Dawley rats (200-300 g) were homogenized with 10 volumes ice-cold 0.32M sucrose using a motor-driven glass/Teflon homogenizer. The homogenate was centrifuged at 1,000 g for 10 minutes and the pellet was discarded. The supernatant was then centrifuged at 18,000 g for 20 minutes. The 18,000 g pellet was then resuspended in 10 volumes buffer A (5 mm Tris-HCl, pH 7.7) at 4° C., homogenized using high-intensity ultrasound and centrifuged at 8,000 for 20 minutes. The supernatant and upper buffy coat of the pellet were combined and centrifuged at 50,000 g for 20 minutes. The pellet was then resuspended in 10 volumes buffer A and homogenized using high-intensity ultrasound. These resuspended membranes were then centrifuged at 50,000 g, discarding the supernatant. The membranes were washed in this manner an additional three times and stored as a frozen suspension at -80° C. for at least 18 hours, but no longer than 2 weeks before use.
For binding experiments, frozen membranes were thawed, pelleted at 50,000 g for 20 minutes and washed as described above, except that 20 volumes of buffer A were used for resuspension, for a total of four times. The final pellet was resuspended in buffer B (5 mm Tris-HCl, pH 7.5) at 23° C. The binding assay mixture was 1.00 ml buffer B containing 200-300 μg membrane protein, 100 μm L-glutamate, 100 μm glycine, 2 nm [^3 H]MK-801 and tetraamine at the following concentrations: 0 ("100%+L-glu,+gly-Control") and 0.05, 0.1, 0.5, 1, 5, 10, 50, 100, 500 and 1,000 μm. Non-specific binding was determined using 100 μm MK-801.
Binding assays were performed in triplicate at 23° C. for one hour and were terminated by filtration through Whatman GF/B glass fiber filters followed by three 4.0 ml rinses of ice-cold buffer B using a Brandel M-48 Cell Harvester.

[6] = 24 h after regimen, normalized for 30 g mouse
[7] = liver and kidneys, 24 h after regimen, 30 g mouse
[8] = mouse, one day after subchronic equimolar i.p. regimen

For `CCNCC[C@@H](O)CNCCCCNC[C@H](O)CCNCC` [(HO)2 DEHSPM, N^1,N^14 -Diethyl-3(R),12(R)-dihydroxyhomospermine tetrahydrochloride], the “# deaths/# animals” value ([1]; 70 mg/kg per day×5 days) was 0/5, the “# deaths/# animals” value ([1]; 80 mg/kg per day×5 days) was 0/5 and the “# deaths/# animals” value ([1]; 90 mg/kg per day×5 days) was 0/10. For the same compound, the “# deaths/# animals” value ([1]; 100 mg/kg per day×5 days) was 1/5, the “# deaths/# animals” value ([1]; 120 mg/kg per day×5 days) was 2/5 and the deaths ([1]; 20, 40 and 60 mg/kg per day×5 days, groups of six animals) was “No deaths”. The LD40 ([1]; mice) was 120 mg/kg per day×5 days, the “necropsy conclusion in severely affected animals” value ([1]; mouse, in vivo) was “potently blocks gastric transport” and the LD50 ([1]; mouse, in vivo, mice, subchronic regimen, read-out: LD50 estimated from the slope of the toxicity curve) was 130 mg/kg. For the same compound, the pIC50 ([2]; Mus musculus, L1210, 96 h, read-out: IC50 96 h, L1210 cells, 96 h) was 7.15, the pIC50 ([2]; Mus musculus, read-out: IC50 48 h, L1210 cells, 48 h) was 6.22 and the pIC50 ([2]; read-out: IC50 96 h, L1210 cells, 96 h) was 7.05 to 7.30. The “% of total dose present as total drug + metabolite, Kidneys” value [3, 6] was 4.04%, the “% of total dose present as total drug + metabolite, Liver” value [3, 6] was 5.96% and the “% of total dose present as unmetabolized parent drug, Kidneys” value [3, 6] was “.357 ± 0.34%”. For the same compound, the “% of total dose present as unmetabolized parent drug, Liver” value [3, 6] was 3.39 ± 0.48%, the “Amount of total dose present as dideethylated metabolite HSPM/(HO)2 HSPM, Kidneys” value [3, 6] was 0.030 µmol and the “Amount of total dose present as dideethylated metabolite HSPM/(HO)2 HSPM, Liver” value [3, 6] was 0.166 µmol. For the same compound, the “Amount of total dose present as total drug + metabolite, Kidneys” value [3, 6] was 0.261 µmol, the “Amount of total dose present as total drug + metabolite, Liver” value [3, 6] was 0.385 µmol and the “Amount of total dose present as unmetabolized parent drug, Kidneys” value [3, 6] was 0.231 µmol. For the same compound, the “Amount of total dose present as unmetabolized parent drug, Liver” value [3, 6] was 0.219 µmol, the “% of total dose present as total drug + metabolite, Both Tissues” value [3, 7] was 10.01% and the “% of total dose present as unmetabolized parent drug, Both Tissues” value [3, 7] was 6.96%. The “Amount of total dose present as dideethylated metabolite HSPM/(HO)2 HSPM, Both Tissues” value [3, 7] was 0.196 µmol, the “Amount of total dose present as total drug + metabolite, Both Tissues” value [3, 7] was 0.646 µmol and the “Amount of total dose present as unmetabolized parent drug, Both Tissues” value [3, 7] was 0.450 µmol. The “level of unchanged drug in kidney” value [3, 8] was 481±46 nmol/g wet weight, the “level of unchanged drug in liver” value [3, 8] was 83.6±11.7 nmol/g wet weight and 84±12 nmol/g wet weight and the “prevention of castor oil-induced diarrhea” value (shortened to “prevention”) ([4]; 1 mg/kg, rat) was “not an effective anti-diarrheal agent”. The “prevention” value ([4]; 2.5 mg/kg, rat, six hour observation) was “partially effective”, the “prevention” value ([4]; 5 mg/kg subcutaneous, rat, six hour assay) was “as effective as DEHSPM at preventing diarrhea” and the “prevention” value ([4]; 18 kg/mg, rat) was “effectively prevented the onset of diarrhea”. For the same compound, the minimal effective dose ([4]; Rattus norvegicus, sc, read-out: minimum effective dose for prevention of diarrhea) was 5 mg/kg, the “stool output / diarrhea during 6 hour assay (FIG. 8)” value ([4]; subcutaneous injection 30 minutes before castor oil 5 ml/kg, rat) was “virtually no stool output” and the “concentration showing agonist activity on MK-801 binding” value [5] was 0.5-1.0 μm. The “concentrations of maximal antagonism of MK-801 binding” value [5] was no less than 50 μm and the “concentrations showing marked antagonist activity on MK-801 binding” value [5] was “above 5 μm”.
